Drawing on US20130225404A1, “PESTICIDAL COMBINATIONS” (SYNGENTA PARTICIPATIONS AG, priority 2010, published 2013), this text covers Av. shoot weight and Av. plant height for 2 molecules.

This assay deals with rice plants. The assay is described as follows: Safening of rice grown from treated seeds against clodinafop herbicide, greenhouse tray test. Conditions: rice seed treatment; for Av. shoot weight: average dry shoot weight five weeks after the clodinafop treatment; for Av. plant height: determined five weeks after the clodinafop treatment. The class given is in vivo. The protocol: Various batches of treated rice seeds were sown in soil contained in trays (0.0425 m^2) at a rice density of 120 kg/ha and their growth monitored in a green house (at 25° C. during the day and 23° C. during the nght). The amounts of the active ingredients, i.e. thiamethoxam (Cruiser 350FS) and N-(2-methoxybenzoyl)-4-[(methylaminocarbonyl)amino]benzene-sulfonamide (safener) used for the rice seed treatment are indicated in the table below. The trays were flooded with water three days after sowing. Nine days after sowing the rice plants were sprayed with the herbicide clodinafop in an amount equal to 100 g/ha. The average plant height and the average dry shoot weight were determined five weeks after the clodinafop treatment.
A similar procedure was performed on untreated seeds except that the clodinafop treatment was omitted (control).
The same procedure as descrbed above was repeated except that the rice plants were treated with the herbicide clodinafop fifteen days after sowing.

Where [1] appears, read: clodinafop 100 g/ha sprayed 9 days after sowing.
Setting [2] is: clodinafop 100 g/ha sprayed 15 days after sowing.

SMILES strings stand for the structures.

Turning to `CNC(=O)Nc1ccc(S(=O)(=O)NC(=O)c2ccccc2OC)cc1` [A, N-(2-methoxybenzoyl)-4-[(methylaminocarbonyl)amino]benzene-sulfonamide], the Av. shoot weight came out at 230 mg under setting [1] and 400 mg under setting [2]. Besides, the Av. plant height stood at 24 cm under setting [1] and 35 cm under setting [2].
Consider `CNC(=O)Nc1ccc(S(=O)(=O)NC(=O)c2ccccc2OC)cc1` [C, N-(2-methoxybenzoyl)-4-[(methylaminocarbonyl)amino]benzene-sulfonamide], for which the Av. shoot weight reads like this: under setting [1], 300 mg; under setting [2], 510 mg. Further, the Av. plant height under setting [1] is 30 cm and the Av. plant height under setting [2] was 40 cm.
